Results from PubChem BioAssay (NCI).
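The concentration for 50% growth inhibition is given as GI50. TGI denotes the concentration required for complete inhibition of growth.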

Tests used:
Assay in all cases: NCI tumour cell line growth inhibition, 384-well format; in the data active = GI50 below about 0.43 µM; inactive = the rest
786-0 renal = tested on: 786-0 renal
A549 NSCLC = tested on: A549 NSCLC
ACHN renal = tested on: ACHN renal
BT-549 breast = tested on: BT-549 breast
CAKI-1 renal = tested on: CAKI-1 renal
CCRF-CEM leukemia = tested on: CCRF-CEM leukemia
DU-145 prostate = tested on: DU-145 prostate
EKVX NSCLC = tested on: EKVX NSCLC
HCC-2998 colon = tested on: HCC-2998 colon
HOP-62 NSCLC = tested on: HOP-62 NSCLC
HOP-92 NSCLC = tested on: HOP-92 NSCLC
HS 578T breast = tested on: HS 578T breast
HT29 colon = tested on: HT29 colon
IGROV1 ovarian = tested on: IGROV1 ovarian
K-562 leukemia = tested on: K-562 leukemia
LOX IMVI melanoma = tested on: LOX IMVI melanoma
M14 melanoma = tested on: M14 melanoma
MCF7 breast = tested on: MCF7 breast
MDA-MB-231 breast = tested on: MDA-MB-231 breast
MDA-MB-435 melanoma = tested on: MDA-MB-435 melanoma
MDA-MB-468 breast = tested on: MDA-MB-468 breast
MOLT-4 leukemia = tested on: MOLT-4 leukemia
NCI-H226 lung = tested on: NCI-H226 lung
NCI-H23 lung = tested on: NCI-H23 lung
NCI-H322M lung = tested on: NCI-H322M lung
NCI-H460 NSCLC = tested on: NCI-H460 NSCLC
NCI-H522 lung = tested on: NCI-H522 lung
NCI/ADR-RES ovarian = tested on: NCI/ADR-RES ovarian
OVCAR-3 ovarian = tested on: OVCAR-3 ovarian
OVCAR-5 ovarian = tested on: OVCAR-5 ovarian
OVCAR-8 ovarian = tested on: OVCAR-8 ovarian
PC-3 prostate = tested on: PC-3 prostate
RPMI-8226 leukemia = tested on: RPMI-8226 leukemia
RXF 393 renal = tested on: RXF 393 renal
SF-268 CNS = tested on: SF-268 CNS
SF-295 CNS = tested on: SF-295 CNS
SK-MEL-2 melanoma = tested on: SK-MEL-2 melanoma
SK-MEL-28 melanoma = tested on: SK-MEL-28 melanoma
SK-MEL-5 melanoma = tested on: SK-MEL-5 melanoma
SK-OV-3 ovarian = tested on: SK-OV-3 ovarian
SNB-19 CNS = tested on: SNB-19 CNS
SNB-75 CNS = tested on: SNB-75 CNS
SR leukemia = tested on: SR leukemia
SW-620 colon = tested on: SW-620 colon
T-47D breast = tested on: T-47D breast
U251 glioblastoma = tested on: U251 glioblastoma
UO-31 renal = tested on: UO-31 renal

C[C@H](NC(=O)c1c(C(F)F)nn(C)c1Oc1cccc(C(F)(F)F)c1)c1ccc(C(=O)O)cc1
> 100 µM: TGI (786-0 renal) | TGI (A549 NSCLC) | TGI (ACHN renal) | TGI (BT-549 breast) | TGI (CAKI-1 renal) | TGI (CCRF-CEM leukemia) | TGI (DU-145 prostate) | TGI (EKVX NSCLC) | TGI (HCC-2998 colon) | TGI (HOP-62 NSCLC) | TGI (HOP-92 NSCLC) | TGI (HS 578T breast) | TGI (HT29 colon) | TGI (IGROV1 ovarian) | TGI (K-562 leukemia) | TGI (LOX IMVI melanoma) | TGI (M14 melanoma) | TGI (MCF7 breast) | TGI (MDA-MB-231 breast) | TGI (MDA-MB-435 melanoma) | TGI (MDA-MB-468 breast) | TGI (MOLT-4 leukemia) | TGI (NCI-H226 lung) | TGI (NCI-H23 lung) | TGI (NCI-H322M lung) | TGI (NCI-H460 NSCLC) | TGI (NCI-H522 lung) | TGI (NCI/ADR-RES ovarian) | TGI (OVCAR-3 ovarian) | TGI (OVCAR-5 ovarian) | TGI (OVCAR-8 ovarian) | TGI (PC-3 prostate) | TGI (RPMI-8226 leukemia) | TGI (RXF 393 renal) | TGI (SF-268 CNS) | TGI (SF-295 CNS) | TGI (SK-MEL-2 melanoma) | TGI (SK-MEL-28 melanoma) | TGI (SK-MEL-5 melanoma) | TGI (SK-OV-3 ovarian) | TGI (SNB-19 CNS) | TGI (SNB-75 CNS) | TGI (SR leukemia) | TGI (SW-620 colon) | TGI (T-47D breast) | TGI (U251 glioblastoma) | TGI (UO-31 renal)
inactive: GI50 ([…]-0 renal) > 100 µM | GI50 (A549 NSCLC) > 100 µM | GI50 (ACHN renal) > 100 µM | GI50 (BT-549 breast) > 100 µM | GI50 (CAKI-1 renal) > 100 µM | GI50 (CCRF-CEM leukemia) > 100 µM | GI50 (DU-145 prostate) > 100 µM | GI50 (EKVX NSCLC) > 100 µM | GI50 (HCC-2998 colon) > 100 µM | GI50 (HOP-62 NSCLC) > 100 µM | GI50 (HOP-92 NSCLC) > 100 µM | GI50 (HS 578T breast) > 100 µM | GI50 (HT29 colon) > 100 µM | GI50 (IGROV1 ovarian) > 100 µM | GI50 (K-562 leukemia) > 100 µM | GI50 (LOX IMVI melanoma) > 100 µM | GI50 (M14 melanoma) > 100 µM | GI50 (MCF7 breast) > 100 µM | GI50 (MDA-MB-231 breast) > 100 µM | GI50 (MDA-MB-435 melanoma) > 100 µM | GI50 (MDA-MB-468 breast) > 100 µM | GI50 (MOLT-4 leukemia) > 100 µM | GI50 (NCI-H226 lung) > 100 µM | GI50 (NCI-H23 lung) > 100 µM | GI50 (NCI-H322M lung) > 100 µM | GI50 (NCI-H460 NSCLC) > 100 µM | GI50 (NCI-H522 lung) > 100 µM | GI50 (NCI/ADR-RES ovarian) > 100 µM | GI50 (OVCAR-3 ovarian) > 100 µM | GI50 (OVCAR-5 ovarian) > 100 µM | GI50 (OVCAR-8 ovarian) > 100 µM | GI50 (PC-3 prostate) > 100 µM | GI50 (RPMI-8226 leukemia) > 61.1 µM | GI50 (RXF 393 renal) > 100 µM | GI50 (SF-268 CNS) > 100 µM | GI50 (SF-295 CNS) > 100 µM | GI50 (SK-MEL-2 melanoma) > 100 µM | GI50 (SK-MEL-28 melanoma) > 100 µM | GI50 (SK-MEL-5 melanoma) > 100 µM | GI50 (SK-OV-3 ovarian) > 100 µM | GI50 (SNB-19 CNS) > 100 µM | GI50 (SNB-75 CNS) > 100 µM | GI50 (SR leukemia) > 100 µM | GI50 (SW-620 colon) > 100 µM | GI50 (T-47D breast) > 100 µM | GI50 (U251 glioblastoma) > 100 µM | GI50 (UO-31 renal) > 100 µM
